What was measured:
bEnd.3 cells [1] = assay: Cellular uptake by laser scanning confocal microscopy (LSCM); conditions: FITC-labeled; confluent bEnd.3 cells; 1 h treatment; formalin-fixed; LSCM 488 laser; qualitative, versus untreated control cells
Method: The bEnd.3 cells were treated at confluence with FITC-labeled products dissolved in DMEM and incubated for 1 h (the appropriate incubation time for dendrons with this type of cell line). The cells were then fixed with 3.7% (v/v) formalin, and analyzed by LSCM (Leica TCS SP5, UK), using a 488-visible laser source.

bEnd.3 cells [2] = assay: LDH release cytotoxicity assay; conditions: confluent bEnd.3 cells; concentrations up to 400 μM; 24 and 48 h; absorbance 492 nm; relative to complete lysis control (100% lysis); mean of n = 6
Method: The bEnd.3 cells were cultured, according to ATCC-product sheet instruction, in DMEM high glucose medium with L-pyruvate, containing 10 % (v/v) fetal bovine serum and 1% (v/v) of 500 U/ml Penicillin/Streptomycin (Gibco, Germany). Cells were seeded at a density of 5 × 10^4 cells per cm^2 in 24-well plates then incubated at 37°C and 5% CO2 and the culture media was replaced every 3 days.
Experiments were performed when cells reached confluence. A range of concentrations (25, 50, 100, 150, 200, 300, and 400 μM) of each AMT-competent G0-, G1-dendron, and RMT-competent AEP-dendron were used in each experiment.
Lactate dehydrogenase (LDH) was measured using Promega CytoTox96® non-radioactive cytotoxicity assay kit (UK) after 24 and 48 h incubation. Absorbance was read spectrophotometrically at 492 nm and converted to a percentage of the total LDH released from the positive control (cells subjected to complete lysis) for 6 replicates.

bEnd.3 cells [3] = assay: Cellular uptake by flow cytometry; conditions: FITC-labeled carrier in DMEM; confluent bEnd.3 cells; 1 h incubation; flow cytometry FL1-H channel; in comparison to negative control (untreated cells)
Method: The bEnd.3 cells were cultured and treated at confluence with 100 μL FITC-labeled products dissolved in DMEM for 1 h. The cells were washed with phosphate buffer solution twice and trypsinised and then harvested to be analyzed using BD C6 sampler flow cytometer (BD Accuri C6, Bioscience, UK). Samples of cells without treatment were also included as a control, and the analysis was carried out through the FL1-H channel for FITC detection.

Molecule	cellular uptake (green fluorescence inside the cells) (bEnd.3 cells [1])	cell membrane lysis (LDH release) as % of positive control (bEnd.3 cells [2]) [%]	cellular uptake (bEnd.3 cells [3]) [%]
O=C1OC2(c3ccc(O)cc3Oc3cc(O)ccc32)c2ccc(N=C=S)cc21 [FITC, fluorescein-5-isothiocyanate, reference compound]	negative results	–	–
NCCCC[C@H](N)C(=O)N[C@@H](Cc1ccccc1)C(N)=O [G0-dendron]	successful cellular uptake	< 10	38.7
H-KLRKLRKRLLR-NH2 (C-terminus assumed) [AEP-dendron]	–	< 10	90.7
